From ChEMBL document CHEMBL6127035, “Novel pyridazinone derivatives bind to KSRP: Synthesis, anti-tumor biological evaluations and modelling insights” (Eur J Med Chem, 2024)
The source made the active and inactive calls. The calls are words filed in the database; no cut-off is given here.

What was measured:
NCI-H460 = experiment: Antiproliferative activity against human NCI-H460 cells assessed as reduction in cell viability incubated for 2 days by MTT assay; assay type: functional, cell-based; conditions: NCI-H460, 48 h
A549 = experiment: Antiproliferative activity against human A549 cells assessed as reduction in cell viability incubated for 2 days by MTT assay; assay type: functional, cell-based; conditions: A549, 48 h
[1] = Cytotoxicity against human L02 cells assessed as reduction in cell viability incubated for 2 days by MTT assay; assay type: toxicity, cell-based
MCF7 [2] = experiment: Inhibition of colony formation in human MCF7 cells assessed as reduction in colony count incubated for 2 weeks by crystal violet staining based analysis; assay type: functional, cell-based; conditions: dose 1.25-2.5 µM
MCF7 [3] = experiment: Antiproliferation against human MCF7 cells assessed as effect on cell proliferation at 0.625 uM incubated for 2 days by MTT assay; assay type: functional, cell-based; conditions: time 2.0 day
MCF7 [4] = experiment: Inhibition of cell migration in human MCF7 cells assessed as reduction in wound healing index at 0.625 uM measured after 72 hrs by scratch assay; assay type: functional, cell-based
MCF7 [5] = experiment: Induction of apoptosis in human MCF7 cells assessed as viable cells at 0.62 uM incubated for 48 hrs by Annexin V-FITC/PI staining based flow cytometric analysis (reference value: 87.2 %); assay type: functional; conditions: read-out: Activity
MCF7 [6] = experiment: Induction of apoptosis in human MCF7 cells assessed as late apoptotic cells at 0.62 uM incubated for 48 hrs by Annexin V-FITC/PI staining based flow cytometric analysis (reference value: 5.31 %); assay type: functional
MCF7 [7] = experiment: Induction of apoptosis in human MCF7 cells assessed as viable cells at 1.25 uM incubated for 48 hrs by Annexin V-FITC/PI staining based flow cytometric analysis (reference value: 87.2 %); assay type: functional; conditions: read-out: Activity
MCF7 [8] = experiment: Induction of apoptosis in human MCF7 cells assessed as viable cells at 2.5 uM incubated for 48 hrs by Annexin V-FITC/PI staining based flow cytometric analysis (reference value: 87.2 %); assay type: functional; conditions: read-out: Activity
MCF7 [9] = experiment: Induction of apoptosis in human MCF7 cells assessed as early apoptotic cells at 2.5 uM incubated for 48 hrs by Annexin V-FITC/PI staining based flow cytometric analysis (reference value: 6.33 %); assay type: functional
MCF7 [10] = experiment: Induction of apoptosis in human MCF7 cells assessed as late apoptotic cells at 2.5 uM incubated for 48 hrs by Annexin V-FITC/PI staining based flow cytometric analysis (reference value: 5.31 %); assay type: functional
MCF7 [11] = experiment: Induction of apoptosis in human MCF7 cells assessed as necrotic cells at 2.5 uM incubated for 48 hrs by Annexin V-FITC/PI staining based flow cytometric analysis (reference value: 1.16 %); assay type: functional
MCF7 [12] = experiment: Induction of cell cycle arrest in human MCF7 cells assessed as increase in sub-G1 phase cells at 5 uM incubated for 24 hrs by PI staining based flow cytometric analysis; assay type: functional
MCF7 [13] = experiment: Induction of cell cycle arrest in human MCF7 cells assessed as accumulation of cells at G2/M phase cells at 5 uM incubated for 24 hrs by PI staining based flow cytometric analysis (reference value: 10.2 %); assay type: functional
MCF7 [14] = experiment: Induction of cell cycle arrest in human MCF7 cells assessed as decrease in S phase cells at 5 uM incubated for 24 hrs by PI staining based flow cytometric analysis; assay type: functional
MCF7 [15] = experiment: Induction of morphological changes in human MCF7 cells assessed as cell membrane blebbing at 10 uM measured after 6 hrs by bright field microscopic; assay type: functional, cell-based
MCF7 [16] = experiment: Induction of DNA double-strand breaks in human MCF7 cells assessed as enlarged nucleus at 10 uM incubated for 24 hrs by Hoechst 33342 staining based fluorescence microscopic analysis; assay type: functional, cell-based
MCF7 [17] = experiment: Induction of DNA double-strand breaks in human MCF7 cells assessed as increase in gamma-H2AX expression incubated for 24 hrs by Western blotting; assay type: functional, cell-based
[18] = Acute toxicity in BALB/c nu/nu mouse assessed as survival rate at 100 mg/kg, ip administered for 7 days relative to control; assay type: organism-based; conditions: in vivo, time 7 day
[19] = Acute toxicity in BALB/c nu/nu mouse assessed as survival rate at 120 mg/kg, ip administered for 7 days relative to control; assay type: organism-based; conditions: in vivo, time 7 day
MCF7 [20] = experiment: Antitumor activity against human MCF7 cells xenografted in BALB/C-nu/nu mouse model assessed as decrease in tumor growth at 20 to 30 mg/kg, iv administered every other day for 15 days; assay type: functional, organism-based; conditions: dose 20-30 mg/kg, time 15.0 day
MCF7 [21] = experiment: Antitumor activity against human MCF7 cells xenografted in BALB/C-nu/nu mouse model assessed as decrease in tumor volume at 20 mg/kg, iv administered every other day for 15 days relative to control; assay type: functional; design: scale not given: the % may be the effect or the level left; conditions: time 15 day
[22] = Toxicity in BALB/C-nu/nu mouse xenografted with human MCF7 cells assessed as reduction in body weight at 30 mg/kg, iv administered every other day for 15 days relative to control; assay type: organism-based; design: scale not given: the % may be the effect or the level left; conditions: in vivo, 360 h, time 15 day
MCF7 [23] = experiment: Antitumor activity against human MCF7 cells xenografted in BALB/C-nu/nu mouse model assessed as decrease in tumor weight at 20 mg/kg, iv administered every other day for 15 days relative to control; assay type: functional; design: scale not given: the % may be the effect or the level left; conditions: time 15 day
MCF7 [24] = experiment: Antitumor activity against human MCF7 cells xenografted in BALB/C-nu/nu mouse model assessed as decrease in tumor weight at 30 mg/kg, iv administered every other day for 15 days relative to control; assay type: functional; design: scale not given: the % may be the effect or the level left; conditions: time 15 day
MCF7 [25] = experiment: Antitumor activity against human MCF7 cells xenografted in BALB/C-nu/nu mouse model assessed as inhibition of Ki-67 expression level at 20 to 30 mg/kg, iv administered every other day for 15 days by immunohistochemical analysis; assay type: functional, organism-based; conditions: dose 20-30 mg/kg, time 15.0 day
[26] = Toxicity in BALB/C-nu/nu mouse xenografted with human MCF7 cells assessed as histopathological lesions in heart at 20 to 30 mg/kg, iv administered every other day for 15 days by H and E staining based analysis; assay type: organism-based; conditions: in vivo, 360 h, dose 20-30 mg/kg, time 15 day
[27] = Toxicity in BALB/C-nu/nu mouse xenografted with human MCF7 cells assessed as histopathological lesions in liver at 20 to 30 mg/kg, iv administered every other day for 15 days by H and E staining based analysis; assay type: organism-based; conditions: in vivo, 360 h, dose 20-30 mg/kg, time 15 day

`CN(CCO)S(=O)(=O)c1ccc(-n2ncc(Cl)c(Cl)c2=O)cc1` gave an IC50 (NCI-H460) of 1020 nM, an IC50 (A549) of 2050 nM and an IC50 at 2 days [1] of 8340 nM. For the same compound, the inhibition (MCF7 [2]) was “Dose-Dependent Effect”, the Activity (MCF7 [3]) was “inactive” and the inhibition (MCF7 [4]) was “Active”. The viability at 0.62 µM (MCF7 [5]) was 84.5%, the Activity (MCF7 [6]) was 6.63% and the viability at 1.25 µM (MCF7 [7]) was 75.1%. For the same compound, the viability at 2.5 µM (MCF7 [8]) was 39.5%, the Activity (MCF7 [9]) was 26.7% and the Activity (MCF7 [10]) was 31%. The Activity (MCF7 [11]) was 2.77%, the Activity (MCF7 [12]) was “Active” and the Activity (MCF7 [13]) was 19.9%. For the same compound, the Activity (MCF7 [14]) was “Active”, the Activity (MCF7 [15]) was “Active” and the Activity (MCF7 [16]) was “Active”. For the same compound, the Activity (MCF7 [17]) was “Dose-Dependent Effect”, the survival at 168 h [18] was 80% and the survival at 168 h [19] was 0%. For the same compound, the Activity (MCF7 [20]) was “Active”, the Activity (MCF7 [21]) was 37.7% and the Activity [22] was 20%. For the same compound, the Activity (MCF7 [23]) was 44.6%, the Activity (MCF7 [24]) was 74.2% and the Activity (MCF7 [25]) was “Active”. The Activity [26] was “Non-Toxic” and the Activity [27] was “Non-Toxic”.
